Biological target: T1, wild-type HIV-1 protease (Human immunodeficiency virus type 1 group M subtype B, UniProt P04585)
T1 construct: Escherichia coli expressed wild-type HIV-1 protease protein
Experiment: Assay for Inhibition of Microbial Expressed HIV Protease (peptide substrate cleavage, LC-MS/MS readout)
Assay type: biochemical
Settings: E. coli expressed wild-type HIV-1 protease, mean of at least two independent experiments, read-out: HIV Pr Enzyme HIV1 PR IC50
Procedure, shortened: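 E. coli-expressed wild-type HIV-1 protease ([…]) was preincubated with inhibitor 30 min at room temperature in pH 5.5 acetate buffer (100 mM NaCl, 0.1% BSA). Then 400 μM octapeptide substrate was added and reacted 1 h at 30 °C; inhibition came from LC-MS/MS product peak areas, mean of ≥2 experiments.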

Row | SMILES | IC50 [µM]
1 | CC(C)CC[C@]1(c2ccc(F)cc2)NC(=N)N(C(Cc2ccccc2)c2ccc(C(F)(F)F)c(C(=O)N3CCn4c(nnc4C(F)(F)F)C3)c2)C1=O (stereo partly drawn) [Compound 54, (5R)-5-(4-fluorophenyl)-2-imino-5-(3-methylbutyl)-3-{2-phenyl-1-[4-(trifluoromethyl)-3-{[3-(trifluoromethyl)-5,6-dihydro-[1,2,4]triazolo[4,3-a]pyrazin-7(8H)-yl]carbonyl}phenyl]ethyl} imidazolidin-4-one] | 0.00565
2 | N=C1NC(c2ccccc2)(c2ccc(-c3ccccc3)cc2)C(=O)N1Cc1cccc(C(=O)N2Cc3ccccc3C2)c1 (centres unmarked) [Compound 273, 5-biphenyl-4-yl-3-[3-(1,3-dihydro-2H-isoindol-2-ylcarbonyl)benzyl]-2-imino-5-phenylimidazolidin-4-one] | 0.0285
3 | CC(C)CCC1(c2ccc(F)cc2)NC(=N)N(Cc2ccc(C(F)(F)F)c(C(=O)N3Cc4cncnc4C3)c2)C1=O (centres unmarked) [Compound 167, 3-[3-(5,7-dihydro-6H-pyrrolo[3,4-d]pyrimidin-6-ylcarbonyl)-4-(trifluoromethyl)benzyl]-5-(4-fluorophenyl)-2-imino-5-(3-methylbutyl)imidazolidin-4-one] | 0.0369
4 | N=C1NC(c2ccc(F)cc2)(c2ccc(F)cc2)C(=O)N1Cc1ccc(C(F)(F)F)c(C(=O)N2CCC2)c1 [Compound 173, 3-[3-(azetidin-1-ylcarbonyl)-4-(trifluoromethyl)benzyl]-5,5-bis(4-fluorophenyl)-2-iminoimidazolidin-4-one] | 0.0533
5 | N#Cc1ncc2c(n1)CN(C(=O)c1cc(CN3C(=N)NC(c4ccc(F)cc4)(c4ccc(F)cc4)C3=O)ccc1C(F)(F)F)C2 [Compound 134, 6-{[5-{[4,4-bis(4-fluorophenyl)-2-imino-5-oxoimidazolidin-1-yl]methyl}-2-(trifluoromethyl)-phenyl]carbonyl}-6,7-dihydro-5H-pyrrolo[3,4-d] pyrimidine-2-carbonitrile] | 0.00108
6 | CC(=O)NCc1cc2c(o1)CCN(C(=O)c1cc(CN3C(=N)NC(CCC(C)C)(c4ccc(F)cc4)C3=O)ccc1C(F)(F)F)C2 (centres unmarked) [Compound 178, N-[(5-{[5-{[4-(4-fluorophenyl)-2-imino-4-(3-methylbutyl)-5-oxoimidazolidin-1-yl]methyl}-2-(trifluoromethyl)phenyl]carbonyl}-4,5,6,7-tetrahydrofuro[3,2-c]pyridin-2-yl)methyl]acetamide] | 0.0716
7 | CC(C)CC1(c2cccc(F)c2)NC(=N)N(Cc2cccc(C(=O)N3Cc4ccccc4C3)c2)C1=O (centres unmarked) [Compound 264, 3-[3-(1,3-dihydro-2H-isoindol-2-ylcarbonyl)benzyl]-5-(3-fluorophenyl)-2-imino-5-(2-methylpropyl) imidazolidin-4-one] | 0.0248
8 | CC(C)CC1(c2ccccc2)NC(=N)N(Cc2cccc(C(=O)N3CCC(n4c(=O)[nH]c5nc(F)ccc54)CC3)c2)C1=O (centres unmarked) [Compound 346, 5-fluoro-1-{1-[(3-{[2-imino-4-(2-methylpropyl)-5-oxo-4-phenylimidazolidin-1-yl]methyl}phenyl)-carbonyl]piperidin-4-yl}-1,3-dihydro-2H-imidazo[4,5-b]pyridin-2-one] | 0.0825
9 | N=C1NC(c2ccccc2)(c2ccccc2)C(=O)N1Cc1cccc(C(=O)N2CCc3cc(C(F)(F)F)ccc3C2)c1 [Compound 336, 2-imino-5,5-diphenyl-3-(3-{[6-(trifluoromethyl)-3,4-dihydroisoquinolin-2(1H)-yl]carbonyl}benzyl) imidazolidin-4-one] | 0.071
10 | N=C1NC(c2ccccc2)(c2ccccc2)C(=O)N1Cc1cccc(C(=O)N2CCc3ccccc32)c1 [Compound 312, 3-[3-(2,3-dihydro-1H-indol-1-ylcarbonyl)benzyl]-2-imino-5,5-diphenylimidazolidin-4-one] | 0.0521
11 | Cn1ncc2cc(-c3ncc4c(n3)CN(C(=O)c3cc(CN5C(=N)N[C@](CCCC(F)(F)F)(c6ccc(F)cc6)C5=O)ccc3C(F)(F)F)C4)ccc21 [Compound 43, (5R)-5-(4-fluorophenyl)-2-imino-3-[3-{[2-(1-methyl-1H-indazol-5-yl)-5,7-dihydro-6H-pyrrolo[3,4-d]pyrimidin-6-yl]carbonyl}-4-(trifluoromethyl)benzyl]-5-(4,4,4-trifluorobutyl)imidazolidin-4-one] | 0.00447
12 | N=C1N[C@](CCCC(F)(F)F)(c2ccc(F)cc2)C(=O)N1Cc1ccc(C(F)(F)F)c(C(=O)N2CCN3C(=O)OCC3C2)c1 (stereo partly drawn) [Compound 87, 7-{[5-{[(4R)-4-(4-fluorophenyl)-2-imino-5-oxo-4-(4,4,4-trifluoro-butyl)imidazolidin-1-yl]methyl}-2-(trifluoromethyl)phenyl]carbonyl}hexahydro[1,3] oxazolo[3,4-a]pyrazin-3-one] | 0.0148
13 | N=C1NC(c2ccc(F)cc2)(c2ccc(F)cc2)C(=O)N1Cc1cncc(C(=O)N2CCN(C(=O)OCc3ccccc3)CC2)c1 [Compound 395, benzyl 4-[(5-{[4,4-bis(4-fluorophenyl)-2-imino-5-oxoimidazolidin-1-yl]methyl}pyridin-3-yl)carbonyllpiperazine-1-carboxylate] | 0.0974
14 | CCCC1(c2ccccc2)NC(=N)N(Cc2cccc(C(=O)N3Cc4cncnc4C3)c2)C1=O (centres unmarked) [Compound 302, 3-[3-(5,7-dihydro-6H-pyrrolo[3,4-d]pyrimidin-6-ylcarbonyl)benzyl]-2-imino-5-phenyl-5-propylimidazolidin-4-one] | 0.0454
15 | N=C1N[C@](CCCC(F)(F)F)(c2ccc(F)cc2)C(=O)N1Cc1ccc(C(F)(F)F)c(C(=O)N2CCN3c4ccccc4CC3C2)c1 (stereo partly drawn) [Compound 132, (5R)-5-(4-fluorophenyl)-2-imino-3-[3-(3,4,10,10a-tetrahydropyrazino-[1,2-a]indol-2(1H)-ylcarbonyl)-4-(trifluoromethyl)benzyl]-5-(4,4,4-trifluorobutyl)imidazolidin-4-one] | 0.0866
16 | N=C1N[C@](C[C@@H]2CCOC2)(c2ccccc2)C(=O)N1Cc1ccc(C(F)(F)F)c(C(=O)N2Cc3nccnc3C2)c1 [Compound 128, (5R)-3-[3-(5,7-dihydro-6H-pyrrolo[3,4-b]pyrazin-6-ylcarbonyl)-4-(trifluoromethyl)-benzyl]-2-imino-5-phenyl-5-[(3R)-tetrahydrofuran-3-ylmethyl]-imidazolidin-4-one] | 0.0679
17 | CC(C)CCC1(c2ccc(F)cc2)NC(=N)N(Cc2ccc(C(F)(F)F)c(C(=O)N3Cc4nccnc4C3)c2)C1=O (centres unmarked) [Compound 146, 3-[3-(5,7-dihydro-6H-pyrrolo[3,4-b]pyrazin-6-ylcarbonyl)-4-(trifluoromethyl)benzyl]-5-(4-fluorophenyl)-2-imino-5-(3-methylbutyl)imidazolidin-4-one] | 0.00407
18 | CC(C)CCC1(c2ccccc2)NC(=N)N(Cc2cccc(C(=O)N3Cc4nccnc4C3)c2)C1=O (centres unmarked) [Compound 193, 3-[3-(5,7-dihydro-6H-pyrrolo[3,4-b]pyrazin-6-ylcarbonyl)benzyl]-2-imino-5-(3-methylbutyl)-5-phenylimidazolidin-4-one] | 0.00489
19 | C[C@H](c1cccc(C(=O)N2Cc3cncnc3C2)c1)N1C(=N)NC(c2ccccc2)(c2ccccc2)C1=O [Compound 228, 3-{(1R)-1-[3-(5,7-dihydro-6H-pyrrolo[3,4-d]pyrimidin-6-ylcarbonyl)phenyl]ethyl}-2-imino-5,5-diphenylimidazolidin-4-one] | 0.0131
20 | COC(=O)Nc1ncc2c(n1)CN(C(=O)c1cc(CN3C(=N)NC(c4ccc(F)cc4)(c4ccc(F)cc4)C3=O)ccc1F)C2 [Compound 370, methyl {6-[(5-{[4,4-bis(4-fluorophenyl)-2-imino-5-oxoimidazolidin-1-yl]methyl}-2-fluorophenyl)carbonyl]-6,7-dihydro-5H-pyrrolo[3,4-d]pyrimidin-2-yl}carbamate] | 0.00581
21 | CC(C)CCC1(c2ccccc2)NC(=N)N(Cc2cccc(C(=O)N3Cc4cccnc4C3)c2)C1=O (centres unmarked) [Compound 218, 3-[3-(5,7-dihydro-6H-pyrrolo[3,4-b]pyridin-6-ylcarbonyl)benzyl]-2-imino-5-(3-methylbutyl)-5-phenylimidazolidin-4-one] | 0.0105
22 | CC(C)CCC(c1ccc(C(F)(F)F)c(C(=O)N2Cc3nccnc3C2)c1)N1C(=N)N[C@](CCC(C)C)(c2ccccc2)C1=O (stereo partly drawn) [Compound 9, (5R)-3-{1-[3-(5,7-dihydro-6H-pyrrolo[3,4-b]pyrazin-6-ylcarbonyl)-4-(trifluoromethyl)phenyl]-4-methylpentyl}-2-imino-5-(3-methylbutyl)-5-phenylimidazolidin-4-one] | 0.0006
23 | N=C1NC(c2ccccc2)(c2ccccc2)C(=O)N1Cc1cccc(C(=O)N2CCN(C(=O)OCc3ccccc3)CC2)c1 [Compound 260, benzyl 4-({3-[(2-imino-5-oxo-4,4-diphenylimidazolidin-1-yl)methyl]phenyl}carbonyl) piperazine-1-carboxylate] | 0.0232
24 | N=C1N[C@](CCCC(F)(F)F)(c2ccc(F)cc2)C(=O)N1Cc1ccc(C(F)(F)F)c(C(=O)N2Cc3cnc(-c4cccc(-n5nccn5)c4)nc3C2)c1 [Compound 95, (5R)-5-(4-fluorophenyl)-2-imino-3-[3-({2-[3-(2H-1,2,3-triazol-2-yl)phenyl]-5,7-dihydro-6H-pyrrolo-[3,4-d]pyrimidin-6-yl}carbonyl)-4-(trifluoromethyl)benzyl]-5-(4,4,4-trifluorobutyl)imidazolidin-4-one] | 0.0194
25 | N=C1N[C@](CCCC(F)(F)F)(c2ccc(F)cc2)C(=O)N1Cc1ccc(C(F)(F)F)c(C(=O)N2Cc3cnc(-c4cccc(F)c4)nc3C2)c1 [Compound 86, (5R)-5-(4-fluorophenyl)-3-[3-{[2-(3-fluorophenyl)-5,7-dihydro-6H-pyrrolo[3,4-d]pyrimidin-6-yl]carbonyl}-4-(trifluoromethyl)-benzyl]-2-imino-5-(4,4,4-trifluorobutyl)imidazolidin-4-one] | 0.0145
26 | N=C1NC(c2ccccc2)(c2ccc(-c3ccccc3)cc2)C(=O)N1Cc1cccc(C(=O)N2Cc3nccnc3C2)c1 (centres unmarked) [Compound 192, 5-biphenyl-4-yl-3-[3-(5,7-dihydro-6H-pyrrolo[3,4-b]pyrazin-6-ylcarbonyl)benzyl]-2-imino-5-phenylimidazolidin-4-one] | 0.0442
